Assay: pharmacokinetics of 4-hydroxy tamoxifen gel in healthy premenopausal women (Example 3)
Format: in vivo, human
Conditions: for Plasma concentration of 4-hydroxy tamoxifen, Range: First cycle Day 1, 0 hr; for AUC0-24, Mean ± SD / Cav = AUC0-24/24, Mean ± SD / Cmax, Mean ± SD / tmax, Mean ± SD: last administration, day 25 of second cycle
Description: Each participant applied the gel daily for the duration of two menstrual cycles.
At the end of a menstrual cycle, each patient received a single dose, after which serial blood samples were collected at 0, 0.5, 1, 1.5, 2, 3, 4, 6, 12, 18, 24, 36, 48, and 72 hours.
On the first day of the following menstruation, treatment, which consisted of daily application of the gel over two menstrual cycles, began. Blood samples were collected 24 hours following the morning application of gel on days 7, 20 and 25 of the first and second cycles. On the last day of administration, day 25 of the second menstrual cycle, serial blood samples were collected prior to application and at 0.5, 1, 1.5, 2, 3, 4, 6, 12, 18, 24, 36, 48, and 72 hours after application of the gel.

## CCC(=C(c1ccc(O)cc1)c1ccc(OCCN(C)C)cc1)c1ccccc1 [4-hydroxy tamoxifen, 1-[4-(2-N-dimethylaminoethoxy)phenyl]-1-(4-hydroxyphenyl)-2-phenylbut-1-ene]
0.5 mg/day, gel 20 mg/100 g
  Plasma concentration of 4-hydroxy tamoxifen, Range: (0-17.2) pg/mL
  AUC0-24, Mean ± SD: 0.2563 ± 0.2053 ng·h/mL
  Cav = AUC0-24/24, Mean ± SD: 0.0107 ± 0.0085 ng/mL
  Cmax, Mean ± SD: 0.017 ± 0.0085 ng/mL
  tmax, Mean ± SD: 40 ± 81 h
0.5 mg/day, gel 20 mg/100 g, First cycle Day 7, 24 hr after application
  Plasma concentration of 4-hydroxy tamoxifen, Mean ± SD: 0.0064 ± 0.0056 ng/mL
0.5 mg/day, gel 20 mg/100 g, First cycle Day 20, 24 hr after application
  Plasma concentration of 4-hydroxy tamoxifen, Mean ± SD: 0.0136 ± 0.0079 ng/mL
0.5 mg/day, gel 20 mg/100 g, First cycle Day 25, 24 hr after application
  Plasma concentration of 4-hydroxy tamoxifen, Mean ± SD: 0.0239 ± 0.0234 ng/mL
0.5 mg/day, gel 20 mg/100 g, Second cycle Day 7, 24 hr after application
  Plasma concentration of 4-hydroxy tamoxifen, Mean ± SD: 0.0252 ± 0.0161 ng/mL
0.5 mg/day, gel 20 mg/100 g, Second cycle Day 20, 24 hr after application
  Plasma concentration of 4-hydroxy tamoxifen, Mean ± SD: 0.0157 ± 0.014 ng/mL
0.5 mg/day, gel 20 mg/100 g, Second cycle Day 25, 0 hr (24 hours after Day 24 application, prior to final application)
  Plasma concentration of 4-hydroxy tamoxifen, Mean ± SD: 0.0108 ± 0.0099 ng/mL
0.5 mg/day, gel 20 mg/100 g, Second cycle Day 25, 0.5 hr after application
  Plasma concentration of 4-hydroxy tamoxifen, Mean ± SD: 0.0109 ± 0.0074 ng/mL
0.5 mg/day, gel 20 mg/100 g, Second cycle Day 25, 1 hr after application
  Plasma concentration of 4-hydroxy tamoxifen, Mean ± SD: 0.0104 ± 0.0078 ng/mL
0.5 mg/day, gel 20 mg/100 g, Second cycle Day 25, 1.5 hr after application
  Plasma concentration of 4-hydroxy tamoxifen, Mean ± SD: 0.009 ± 0.0082 ng/mL
0.5 mg/day, gel 20 mg/100 g, Second cycle Day 25, 2 hr after application
  Plasma concentration of 4-hydroxy tamoxifen, Mean ± SD: 0.0118 ± 0.0095 ng/mL
0.5 mg/day, gel 20 mg/100 g, Second cycle Day 25, 3 hr after application
  Plasma concentration of 4-hydroxy tamoxifen, Mean ± SD: 0.01 ± 0.0079 ng/mL
0.5 mg/day, gel 20 mg/100 g, Second cycle Day 25, 4 hr after application
  Plasma concentration of 4-hydroxy tamoxifen, Mean ± SD: 0.0092 ± 0.0083 ng/mL
0.5 mg/day, gel 20 mg/100 g, Second cycle Day 25, 6 hr after application
  Plasma concentration of 4-hydroxy tamoxifen, Mean ± SD: 0.0114 ± 0.0085 ng/mL
0.5 mg/day, gel 20 mg/100 g, Second cycle Day 25, 12 hr after application
  Plasma concentration of 4-hydroxy tamoxifen, Mean ± SD: 0.011 ± 0.0097 ng/mL
0.5 mg/day, gel 20 mg/100 g, Second cycle Day 25, 18 hr after application
  Plasma concentration of 4-hydroxy tamoxifen, Mean ± SD: 0.0097 ± 0.0088 ng/mL
0.5 mg/day, gel 20 mg/100 g, Second cycle Day 26, 24 hr after last application
  Plasma concentration of 4-hydroxy tamoxifen, Mean ± SD: 0.0124 ± 0.0094 ng/mL
0.5 mg/day, gel 20 mg/100 g, Second cycle Day 26, 36 hr after last application
  Plasma concentration of 4-hydroxy tamoxifen, Mean ± SD: 0.0109 ± 0.0069 ng/mL
0.5 mg/day, gel 20 mg/100 g, Second cycle Day 27, 48 hr after last application
  Plasma concentration of 4-hydroxy tamoxifen, Mean ± SD: 0.0121 ± 0.0065 ng/mL
0.5 mg/day, gel 20 mg/100 g, Second cycle Day 28, 72 hr after last application
  Plasma concentration of 4-hydroxy tamoxifen, Mean ± SD: 0.0099 ± 0.0071 ng/mL
0.5 mg/day, gel 20 mg/100 g, after the second cycle, +8 days, LOQ <5 pg/mL
  Plasma concentration of 4-hydroxy tamoxifen: <LOQ
0.5 mg/day, gel 20 mg/100 g, after the second cycle, +12 days
  Plasma concentration of 4-hydroxy tamoxifen, maximum: (maximum 9.09) pg/mL
0.5 mg/day, gel 20 mg/100 g, after the second cycle, +20 days
  Plasma concentration of 4-hydroxy tamoxifen: 0 ng/mL
1 mg/day, gel 20 mg/100 g
  Plasma concentration of 4-hydroxy tamoxifen, Range: (0-13.9) pg/mL
  AUC0-24, Mean ± SD: 0.3009 ± 0.1908 ng·h/mL
  Cav = AUC0-24/24, Mean ± SD: 0.0125 ± 0.0079 ng/mL
  Cmax, Mean ± SD: 0.021 ± 0.004 ng/mL
  tmax, Mean ± SD: 24 ± 18 h
1 mg/day, gel 20 mg/100 g, First cycle Day 7, 24 hr after application
  Plasma concentration of 4-hydroxy tamoxifen, Mean ± SD: 0.0152 ± 0.0097 ng/mL
1 mg/day, gel 20 mg/100 g, First cycle Day 20, 24 hr after application
  Plasma concentration of 4-hydroxy tamoxifen, Mean ± SD: 0.0173 ± 0.0095 ng/mL
1 mg/day, gel 20 mg/100 g, First cycle Day 25, 24 hr after application
  Plasma concentration of 4-hydroxy tamoxifen, Mean ± SD: 0.0155 ± 0.0066 ng/mL
1 mg/day, gel 20 mg/100 g, Second cycle Day 7, 24 hr after application
  Plasma concentration of 4-hydroxy tamoxifen, Mean ± SD: 0.0174 ± 0.0112 ng/mL
1 mg/day, gel 20 mg/100 g, Second cycle Day 20, 24 hr after application
  Plasma concentration of 4-hydroxy tamoxifen, Mean ± SD: 0.0148 ± 0.0065 ng/mL
1 mg/day, gel 20 mg/100 g, Second cycle Day 25, 0 hr (24 hours after Day 24 application, prior to final application)
  Plasma concentration of 4-hydroxy tamoxifen, Mean ± SD: 0.0157 ± 0.0171 ng/mL
1 mg/day, gel 20 mg/100 g, Second cycle Day 25, 0.5 hr after application
  Plasma concentration of 4-hydroxy tamoxifen, Mean ± SD: 0.0135 ± 0.0091 ng/mL
1 mg/day, gel 20 mg/100 g, Second cycle Day 25, 1 hr after application
  Plasma concentration of 4-hydroxy tamoxifen, Mean ± SD: 0.0108 ± 0.0066 ng/mL
1 mg/day, gel 20 mg/100 g, Second cycle Day 25, 1.5 hr after application
  Plasma concentration of 4-hydroxy tamoxifen, Mean ± SD: 0.0118 ± 0.008 ng/mL
1 mg/day, gel 20 mg/100 g, Second cycle Day 25, 2 hr after application
  Plasma concentration of 4-hydroxy tamoxifen, Mean ± SD: 0.0107 ± 0.0069 ng/mL
1 mg/day, gel 20 mg/100 g, Second cycle Day 25, 3 hr after application
  Plasma concentration of 4-hydroxy tamoxifen, Mean ± SD: 0.0114 ± 0.0079 ng/mL
1 mg/day, gel 20 mg/100 g, Second cycle Day 25, 4 hr after application
  Plasma concentration of 4-hydroxy tamoxifen, Mean ± SD: 0.0112 ± 0.0073 ng/mL
1 mg/day, gel 20 mg/100 g, Second cycle Day 25, 6 hr after application
  Plasma concentration of 4-hydroxy tamoxifen, Mean ± SD: 0.0107 ± 0.0064 ng/mL
1 mg/day, gel 20 mg/100 g, Second cycle Day 25, 12 hr after application
  Plasma concentration of 4-hydroxy tamoxifen, Mean ± SD: 0.0118 ± 0.0078 ng/mL
1 mg/day, gel 20 mg/100 g, Second cycle Day 25, 18 hr after application
  Plasma concentration of 4-hydroxy tamoxifen, Mean ± SD: 0.0122 ± 0.0083 ng/mL
1 mg/day, gel 20 mg/100 g, Second cycle Day 26, 24 hr after last application
  Plasma concentration of 4-hydroxy tamoxifen, Mean ± SD: 0.0186 ± 0.0142 ng/mL
1 mg/day, gel 20 mg/100 g, Second cycle Day 26, 36 hr after last application
  Plasma concentration of 4-hydroxy tamoxifen, Mean ± SD: 0.0134 ± 0.0075 ng/mL
1 mg/day, gel 20 mg/100 g, Second cycle Day 27, 48 hr after last application
  Plasma concentration of 4-hydroxy tamoxifen, Mean ± SD: 0.0125 ± 0.006 ng/mL
1 mg/day, gel 20 mg/100 g, Second cycle Day 28, 72 hr after last application
  Plasma concentration of 4-hydroxy tamoxifen, Mean ± SD: 0.0099 ± 0.0058 ng/mL
1 mg/day, gel 20 mg/100 g, after last administration
  T(1stC < LOQ), first timepoint at which the plasma concentration was below the limit of quantification, Mean ± SD: 274 ± 141 h
1 mg/day, gel 20 mg/100 g, after the second cycle, +5 days
  Plasma concentration of 4-hydroxy tamoxifen, Mean ± SD: 0.0058 ± 0.0052 ng/mL
1 mg/day, gel 20 mg/100 g, after the second cycle, +20 days, LOQ <5 pg/mL
  Plasma concentration of 4-hydroxy tamoxifen: <LOQ
1 mg/day, gel 57 mg/100 g
  Plasma concentration of 4-hydroxy tamoxifen, Range: (0-9.5) pg/mL
1 mg/day, gel 57 mg/100 g, First cycle Day 7, 24 hr after application
  Plasma concentration of 4-hydroxy tamoxifen, Mean ± SD: 0.0144 ± 0.0131 ng/mL
1 mg/day, gel 57 mg/100 g, First cycle Day 20, 24 hr after application
  Plasma concentration of 4-hydroxy tamoxifen, Mean ± SD: 0.0181 ± 0.0158 ng/mL
